Article PMC10892142, “Synthesis and In Vitro Antitumor Activity Evaluation of Gefitinib-1,2,3-Triazole Derivatives” (Molecules, 2024)

Experiments:
H1299 cells [1] = assay: Wound healing (cell scratch) assay; format: cell-based, human; details: 24 h
Description: H1299 cells were seeded in a 6-well plate. When the cell confluency reached 95%, a wound line was scratched using a 200 μl pipette tip and then washed three times. Then, fresh medium containing 4b or 4c (2, 4 and 8 μM) was added and the plate was incubated at 37 °C with 5% CO2. All images were captured at 0 h and 24 h under an inverted microscope, and the quantification of scratches was analyzed using Image J (https://imagej.net/ij/, accessed on 4 January 2024).

MMP9 = assay: Western blot, MMP9 in H1299 cells; format: cell-based, human; details: H1299, with increasing drug concentration
Description: (§1) Firstly, H1299 cells were treated with the different concentrations of 4b and 4c at 4, 8 and 16 μM for 48 h. Then, cells were harvested using RIPA lysate (R0010, Solarbio, Beijing, China) and centrifuged at 12,000× g rpm for 15 min at 4 °C. Following that, the concentration of total protein was measured and taken from the supernatant. Protein was separated by 12% SDS-polyacrylamide gel electrophoresis and transferred to nitrocellulose filter membrane. After blocking in 5% milk for 2 h, the membranes were incubated with a specific primary antibody at 4 °C overnight. The next day, NC membranes were incubated for 1 h at room temperature with appropriate secondary antibodies and then protein bands were visualizing by chemiluminescence detection (ECL kit, Genview, Beijing, China).

[2] = system: Bcl-2/caspase3/PARP signaling pathway; assay: Western blot, apoptosis proteins in H1299 cells; format: cell-based, human; details: H1299, 4, 8 and 16 μM, 48 h
Description: as §1

lung cancer cells = assay: CCK-8 assay, lung cancer cells (line not specified); format: cell-based; details: read-out: inhibition rate on lung cancer cells
Description: (§2) Three types of lung cells and L02 cells were seeded into 96-well plate at a density of 5 × 10^3 cells per well in the logarithmic growth phase and cultured at 37 °C. The cells were then treated initially with different concentrations of compounds 4a–4n (0, 2, 4, 8, 16 and 32 μM) for an additional 48 h, with three replicate wells each. Next, cell viability was determined according to the instructions of the CCK-8 assay. Then, 10 μL CCK-8 solution was added to each well of the plate and incubated for 1–4 h in the incubator. The absorbance was measured at 450 nm using a microplate reader (Bio-Tek, Winooski, VT, USA). The percentage of viable cells was measured using the following formula where three independent experiments were performed: [(A450sample − A450blank)/(A450control − A450blank)] × 100%.

L02 cells = assay: CCK-8 assay, normal hepatic cells L02; format: cell-based; details: Homo sapiens; for inhibition at 2 µM / inhibition at 4 µM / inhibition at 8 µM / inhibition at 16 µM / inhibition at 32 µM: L02, 48 h, L02 cells, read-out: Inhibition Rate %, 48 h; for IC50: normal hepatic cells L02, CCK-8, 48 h, mean ± SD, n = 3
Description: NCI-H1299, NCI-H1437 and L02 cells were cultured in a humidified incubator (Thermo Scientific™ Forma™ Direct Heat CO2 Incubator, Waltham, MA, USA) at 37 °C with 5% CO2 in RPMI-1640 supplemented with 10% fetal bovine serum (FBS) and 1% Penicillin Streptomycin. A549 cells were cultured in a humidified incubator at 37 °C with 5% CO2 in Ham’s F-12K supplemented with 10% FBS and 1% Penicillin Streptomycin.
as §2

NCI-H1299 cells = assay: CCK-8 assay, NCI-H1299 cells; format: cell-based, human; details: Homo sapiens, NCI-H1299; CCK-8, 48 h, mean ± SD, n = 3
Description: (§3) Next, cell viability was determined according to the instructions of the CCK-8 assay. Then, 10 μL CCK-8 solution was added to each well of the plate and incubated for 1–4 h in the incubator. […] The percentage of viable cells was measured using the following formula where three independent experiments were performed: [(A450sample − A450blank)/(A450control − A450blank)] × 100%.

H1299 cells [3] = assay: DAPI staining for cell apoptosis; format: cell-based, human; details: H1299, 2, 4 and 8 μM, 48 h
Description: H1299 (1.5 × 10^4–2 × 10^4/well) cells were seeded in 24-well plates for 24 h and then treated with 4b or 4c at the concentrations of 2, 4 and 8 μM for 48 h. The cells were fixed for 30 min at room temperature in 4% paraformaldehyde and washed three times in PBS. Finally, every well was stained with DAPI (10 μg/mL) at room temperature for 30 min and washed at least three times in PBS. The fluorescence microscope was used to observe the morphological changes of cell nuclei.

H1299 cells [4] = assay: Transwell migration assay; format: cell-based, human; details: H1299, 2, 4 and 8 μM, 24 h, vs normal control
Description: Transwell assay was used to determine the migration ability of H1299 cells. Cells were starved in serum-free RPMI 1640 medium for 24 h, then detached and resuspended in serum-free RPMI 1640 medium. 5 × 10^5 cells/mL were inoculated into the upper chamber of a 24-well Transwell plate (Corning Inc., Corning, NY, USA), with a volume of 100 μL per well. Then, 100 μL serum-free medium containing 4b or 4c (2, 4 and 8 μM) was added to the upper chamber and the lower chamber was filled with 700 μL medium containing 20% FBS. After incubation for 24 h, H1299 cells on the upper membrane of the transwell were wiped off. The migrated cells were treated with 4% paraformaldehyde for 20 min, stained with 0.1% crystal violet for 20 min and washed three times with PBS. The number of H1299 cells that migrated to the underside of the membrane was counted under the inverted fluorescence microscope. Three randomly selected areas from each transwell were photographed and calculated using Image J.

NCI-H1437 cells = assay: CCK-8 assay, NCI-H1437 cells; format: cell-based; details: Homo sapiens, NCI-H1437; CCK-8, 48 h, mean ± SD, n = 3
Description: as §3

H1299 cells [5] = assay: Colony formation assay; format: cell-based, human; details: seven days
Description: H1299 cells were seeded in six-well plates at a density of 500 cells per well and treated with 4b or 4c (1, 2 and 4 μM) for seven days. Then, cells were per-fixed with 4% paraformaldehyde for 30 min, stained with 0.1% crystal violet for 15 min and then washed with pure water. After destain with water, the plates were allowed to dry at room temperature overnight. Image J was used to count the number of clone formations.

H1299 cells [6] = assay: Annexin V-EGFP/PI flow cytometry for cell apoptosis; format: cell-based, human; details: 48 h
Description: H1299 cells were seeded in a 6-well plate at a density of 1 × 10^5 cells/well and incubated for 24 h. The following day, the medium was replaced with fresh medium containing 4b or 4c (2, 4 and 8 μM) and cells were incubated for an additional 48 h. Cell apoptosis was detected using Annexin V-EGFP/PI apoptosis detection kit (Beyotime Biotechnology, Shanghai, China) by flow cytometry. Subsequently, 5 μL of […] Annexin V and 10 μL of PI was added to the cell suspension, gently vortexed and incubated at room temperature in the dark for 20 min. Then, single-cell suspension was prepared followed by flow cytometry (BD Accuri™ C6 Plus, BD Biosciences, Franklin Lake, NJ, USA).

A549 cells = assay: CCK-8 assay, A549 cells; format: cell-based; details: Homo sapiens, A549; CCK-8, 48 h, mean ± SD, n = 3
Description: as §3

Structure (SMILES) | migration closure rate (H1299 cells [1]; H1299, 2 μM) | migration closure rate (H1299 cells [1]; H1299, 4 μM) | migration closure rate (H1299 cells [1]; H1299, 8 μM) | MMP9 protein expression (MMP9) | expression level of Bcl-2 protein [2] | expression level of PARP protein [2] | expression level of caspase 3 protein [2] | expression level of caspase 9 protein [2] | expression level of cleaved PARP protein [2] | expression level of cleaved caspase 3 protein [2] | melting point | inhibition at 4 µM (lung cancer cells) | inhibition at 2 µM (L02 cells) | inhibition at 4 µM (L02 cells) | inhibition at 8 µM (L02 cells) | inhibition at 16 µM (L02 cells) | inhibition at 32 µM (L02 cells) | IC50 (L02 cells) | IC50 (NCI-H1299 cells) | nuclear morphology (DAPI staining) (H1299 cells [3]) | further results
COc1cc2ncnc(Nc3cccc(-c4cn(Cc5cccc(F)c5)nn4)c3)c2cc1OCCCN1CCOCC1 [Compound 4c, N-(3-(1-(3-Fluorobenzyl)-1H-1,2,3-triazol-4-yl)phenyl)-7-methoxy-6-(3-morpholinopropoxy)quinazolin-4-amine] | 53.26 ± 4.51% | 40.04 ± 8.02% | 17.90 ± 3.46% | decrease in MMP9 protein expression | concentration-dependent decrease | concentration-dependent decrease | concentration-dependent decrease | concentration-dependent decrease | increased | increased | 202 to 203 °C | 50% | 7.18 ± 1.22% | < 20% | 27.6 ± 2.79% | 30.6 ± 1.93% | 56.1 ± 5.77% | 29.4 ± 5.53 µM | 4.6 ± 0.18 µM | typical apoptotic features | number of cells crossing the microporous membrane (H1299 cells [4]): significant reduction; IC50 (NCI-H1437 cells): 3.51 ± 0.05 µM; formation of H1299 cell colonies (H1299 cells [5]; 1 μM): significantly inhibit; formation of H1299 cell colonies (H1299 cells [5]; 4 μM): almost completely inhibited; total apoptotic cell proportion (H1299 cells [6]; H1299, 2 μM): 16.37 ± 0.57%; total apoptotic cell proportion (H1299 cells [6]; H1299, 4 μM): 31.2 ± 2.36%; total apoptotic cell proportion (H1299 cells [6]; H1299, 8 μM): 51.77 ± 6.74%; IC50 (A549 cells): 4 ± 0.08 µM
COc1cc2ncnc(Nc3cccc(-c4cn(Cc5ccccc5Br)nn4)c3)c2cc1OCCCN1CCOCC1 [Compound 4b, N-(3-(1-(2-Bromobenzyl)-1H-1,2,3-triazol-4-yl)phenyl)-7-methoxy-6-(3-morpholinopropoxy)quinazolin-4-amine] | 72.59 ± 2.12% | 62.42 ± 5.50% | 49.79 ± 2.22% | decrease in MMP9 protein expression | concentration-dependent decrease | concentration-dependent decrease | concentration-dependent decrease | concentration-dependent decrease | increased | increased | 165 to 166 °C | 50% | 9.09 ± 1% | < 20% | 29.8 ± 1.27% | 39.1 ± 2.18% | 64.8 ± 1.84% | 20.2 ± 1.26 µM | 4.42 ± 0.24 µM | typical apoptotic features | number of cells crossing the microporous membrane (H1299 cells [4]): significant reduction; IC50 (NCI-H1437 cells): 1.56 ± 0.06 µM; formation of H1299 cell colonies (H1299 cells [5]; 1 μM): significantly inhibit; formation of H1299 cell colonies (H1299 cells [5]; 4 μM): almost completely inhibited; total apoptotic cell proportion (H1299 cells [6]; H1299, 2 μM): 20.43 ± 1.72%; total apoptotic cell proportion (H1299 cells [6]; H1299, 4 μM): 43.2 ± 2.4%; total apoptotic cell proportion (H1299 cells [6]; H1299, 8 μM): 77.4 ± 3.97%; IC50 (A549 cells): 3.94 ± 0.01 µM
